# Measured values: the supplement of paper PMC9386025
# Columns and labels:
# Assay in all cases: drug sensitivity score (DSS) (DSS (dimensionless)); higher = more sensitive (stronger drug response)
# [1] = system: JHOS2
# How it was run: (§1)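 Ovarian cancer cell lines with shRNA induced by 100 ng/ml doxycycline for at least three days, along with patient-derived cultures, were seeded at 1 000 – 1 500 cells per well onto drugs pre-plated in 384-well plates at five concentrations over a 10,000-fold range and incubated for three days at 37 °C and 5.0 % CO2. CellTiter-Glo luminescence measured on a PHERAstar FS served as the viability readout, and each drug's dose-response curve was summarised as a drug sensitivity score following an earlier published method.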
# [2] = system: FIMM-PDC3 (patient-derived ovarian cancer cells); details: genetic perturbation: none (patient-derived cell culture)
# How it was run: as §1
# [3] = system: FIMM-PDC6 (patient-derived ovarian cancer cells); details: genetic perturbation: none (patient-derived cell culture)
# How it was run: as §1
# [4] = system: FIMM-PDC5 (patient-derived ovarian cancer cells); details: genetic perturbation: none (patient-derived cell culture)
# How it was run: as §1
# [5] = system: FIMM-PDC7 (patient-derived ovarian cancer cells); details: genetic perturbation: none (patient-derived cell culture)
# How it was run: as §1
# [6] = system: OVSAHO
# How it was run: as §1
# [7] = system: FIMM-PDC4 (patient-derived ovarian cancer cells); details: genetic perturbation: none (patient-derived cell culture)
# How it was run: as §1
# [8] = system: Kuramochi
# How it was run: as §1
# [9] = system: FIMM-PDC1 (patient-derived ovarian cancer cells); details: genetic perturbation: none (patient-derived cell culture)
# How it was run: as §1
# [10] = genetic perturbation: DOX-induced PTK7 shRNA knockdown
# [11] = genetic perturbation: DOX-induced control shRNA
SMILES,"drug sensitivity score [1, 10]","drug sensitivity score [1, 11]",drug sensitivity score [2],drug sensitivity score [3],drug sensitivity score [4],drug sensitivity score [5],"drug sensitivity score [6, 10]","drug sensitivity score [6, 11]",drug sensitivity score [7],"drug sensitivity score [8, 10]","drug sensitivity score [8, 11]",drug sensitivity score [9]
Cc1[nH]c2ccccc2c1CCNCc1ccc(/C=C/C(=O)NO)cc1 [Panobinostat],13,13.6,13.7,12.4,15,8.2,13.5,11.2,8.1,19,7.2,11
Nc1nc2[nH]cc(CCc3ccc(C(=O)N[C@@H](CCC(=O)O)C(=O)O)cc3)c2c(=O)[nH]1 [Pemetrexed],0.4,< 0,< 0,1.5,< 0,< 0,< 0,1.5,< 0,0.6,7.9,2.05
NS(=O)(=O)OC[C@@H]1C[C@@H](n2ccc3c(N[C@H]4CCc5ccccc54)ncnc32)C[C@@H]1O [Pevonedistat],16.2,12.4,5.2,7.1,5.7,12.2,3.7,6.5,9.4,6.65,2.6,3.75
CS(=O)(=O)N1CCN(Cc2cc3nc(-c4cccc5[nH]ncc45)nc(N4CCOCC4)c3s2)CC1 [Pictilisib],5.9,9,8.3,11.5,16.5,12.1,11.7,14.1,15.1,14,7.2,8.15
CO[C@H](C(=O)[C@@H](O)[C@@H](C)O)[C@@H]1Cc2cc3cc(O[C@H]4C[C@@H](O[C@@H]5C[C@@H](O)[C@H](O)[C@@H](C)O5)[C@H](O)[C@@H](C)O4)c(C)c(O)c3c(O)c2C(=O)[C@H]1O[C@H]1C[C@@H](O[C@@H]2C[C@@H](O)[C@@H](O[C@@H]3C[C@](C)(O)[C@H](O)[C@@H](C)O3)[C@@H](C)O2)[C@H](O)[C@@H](C)O1 [Plicamycin],3.7,20.1,4.3,< 0,15.3,< 0,3.5,14.6,12.6,3.45,12.6,15.6
C=CC(=O)N1CCC(Oc2cc3c(Nc4ccc(Cl)c(Cl)c4F)ncnc3cc2OC)CC1 [Poziotinib],< 0,< 0,16.4,21.2,27.2,16.1,2.6,0.3,22.9,0.95,1.4,3.5
CCCCc1nc2cc(/C=C/C(=O)NO)ccc2n1CCN(CC)CC [Pracinostat],13.4,11.9,13.2,13.7,14.8,11.1,14.2,11.2,7.3,18,7.9,10.8
COc1cccc(OCCCN)c1-c1cc(Nc2cnc(C#N)cn2)n[nH]1 [Prexasertib],23.3,7.3,27.1,15.4,24.3,14.3,17.4,11.1,19.2,22.4,8.8,22.6
Cn1cc(CNCC2CCN(c3ncc(C(=O)NO)cn3)CC2)c2ccccc21 [Quisinostat],10.9,12.5,16.5,11.8,14.6,8.6,13.6,12,5.1,17.4,6.5,11
Cc1nc(=O)c2cc(CN(C)c3ccc(C(=O)N[C@@H](CCC(=O)O)C(=O)O)s3)ccc2[nH]1 [Raltitrexed],0.1,< 0,< 0,1.2,< 0,3,< 0,5.1,< 0,0.45,9.4,2.7
Cn1nccc1Nc1nccc(-c2ccn([C@H](CO)c3ccc(Cl)c(F)c3)c(=O)c2)n1 [Ravoxertinib],1.5,3.6,2.2,6.6,9.2,2.6,< 0,2.4,7.9,3.45,< 0,1.2
CN(C)Cc1ccc(S(=O)(=O)n2ccc(/C=C/C(=O)NO)c2)cc1 [Resminostat],7.8,7.1,8.7,8.8,10,7.2,9.3,6.9,4.2,9.8,4.8,6.7
CO[C@H]1C[C@@H]2CC[C@@H](C)[C@@](O)(O2)C(=O)C(=O)N2CCCC[C@H]2C(=O)O[C@H]([C@H](C)C[C@@H]2CC[C@@H](OP(C)(C)=O)[C@H](OC)C2)CC(=O)[C@H](C)/C=C(\C)[C@@H](O)[C@@H](OC)C(=O)[C@H](C)C[C@H](C)/C=C/C=C/C=C/1C [Ridaforolimus],< 0,4.1,4.5,3.2,9.5,11.4,0.4,5.3,5,2.5,0.7,1.65
